According to patent US8815909B2, “Diaminocyclohexane compounds and uses thereof” (Bristol-Myers Squibb Company, priority 2011, dated 2014):
Where two headings read alike, the source gives them in different places.

Target: T1, human Y4 receptor (Homo sapiens, UniProt P50391)
T1 construct: expressed in transfected cells
Assay: NPY4 cAMP HTRF Agonist Assay (inhibitory cAMP assay, Gi activation by Y4 agonism)
Type: cell-based
Conditions: read-out: hY4 CAMP EC50
Procedure, shortened: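 CHO cells stably expressing human Y4, 5000/well, exposed to compound with forskolin and IBMX in PBS for 30 min at room temperature. Gi-mediated inhibition of cAMP then measured by HTRF after 1 h with d2-conjugate and anti-cAMP cryptate.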

T1 sequence (P50391 whole entry): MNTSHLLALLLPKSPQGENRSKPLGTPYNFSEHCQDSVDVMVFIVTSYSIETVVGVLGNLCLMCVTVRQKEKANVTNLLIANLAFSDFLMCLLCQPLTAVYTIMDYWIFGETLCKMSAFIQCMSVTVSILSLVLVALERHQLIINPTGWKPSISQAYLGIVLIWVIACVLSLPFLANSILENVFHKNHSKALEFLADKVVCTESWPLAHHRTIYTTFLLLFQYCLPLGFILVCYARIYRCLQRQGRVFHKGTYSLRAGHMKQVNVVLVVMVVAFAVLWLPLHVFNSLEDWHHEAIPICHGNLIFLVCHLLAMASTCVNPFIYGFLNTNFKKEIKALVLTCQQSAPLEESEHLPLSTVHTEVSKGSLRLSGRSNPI

Row | Structure (SMILES) | EC50 (TABLE 5, R2 is Pyridinyl-CF3) [nM] | EC50 (human Y4 receptor, cAMP) [nM] | other results
1 | N#Cc1ccc(N2C[C@@H]3C[C@H](N[C@@H]4CCCC[C@H]4Nc4cc(-c5cccc(C(N)=O)c5)ccn4)[C@H]2C3)cn1 [Example 302] | – | – | EC50 (TABLE 4, R2 is Pyridinyl-CN): 1210 nM
2 | N#Cc1ccc(N2C[C@@H]3C[C@H](N[C@@H]4CCCC[C@H]4Nc4ncc(-c5cccc(C(N)=O)c5)o4)[C@H]2C3)cn1 [Example 303] | – | – | EC50 (TABLE 4, R2 is Pyridinyl-CN): 221 nM
3 | C[C@]1(N[C@@H]2CCCC[C@H]2Nc2ncc(-c3cccc(C(N)=O)c3)o2)CCCN(c2ccc(C#N)nc2)C1 [Example 304] | – | – | EC50 (TABLE 4, R2 is Pyridinyl-CN): 3 nM
4 | N#Cc1ccc(N2CCC[C@H](N[C@@H]3CCCC[C@H]3Nc3ncc(-c4cccc(C(N)=O)c4)o3)C2)cn1 [Example 305] | – | – | EC50 (TABLE 4, R2 is Pyridinyl-CN): 7 nM
5 | C[C@]1(N[C@@H]2CCCC[C@H]2Nc2cc(-c3cccc(C(N)=O)c3)ccn2)CCCN(c2ccc(C#N)nc2)C1 [Example 306] | – | – | EC50 (TABLE 4, R2 is Pyridinyl-CN): 141 nM
6 | N#Cc1cc(N2CCC[C@H](N[C@@H]3CCCC[C@H]3Nc3ncc(-c4ccc(OC(F)(F)F)cc4)o3)C2)ccn1 [Example 307] | – | – | EC50 (TABLE 4, R2 is Pyridinyl-CN): 7 nM
7 | N#Cc1ccc(N2CCC[C@H](N[C@@H]3CCCC[C@H]3Nc3nccc(-c4ccccc4)n3)C2)cn1 [Example 308] | – | – | EC50 (TABLE 4, R2 is Pyridinyl-CN): 135 nM
8 | N#Cc1ccc(N2CCC[C@H](N[C@@H]3CCCCC3Nc3ncc(-c4ccc(OC(F)(F)F)cc4)o3)C2)cn1 (some centres unmarked) [Example 309] | – | – | EC50 (TABLE 4, R2 is Pyridinyl-CN): 10 nM
9 | N#Cc1cc(N2C[C@@H]3C[C@H](N[C@@H]4CCCC[C@H]4Nc4ncc(-c5ccc(OC(F)(F)F)cc5)o4)[C@H]2C3)ccn1 [Example 310] | – | – | EC50 (TABLE 4, R2 is Pyridinyl-CN): 124 nM
10 | N#Cc1cc(N2CCC[C@H](N[C@@H]3CCCC[C@H]3Nc3ncc(-c4ccccc4OC(F)(F)F)o3)C2)ccn1 [Example 311] | – | – | EC50 (TABLE 4, R2 is Pyridinyl-CN): 9 nM
11 | N#Cc1ccc(N2CCCC(N[C@@H]3CCCC[C@H]3Nc3cc(-c4cccc(C(N)=O)c4)ccn3)C2)cn1 (some centres unmarked) [Example 312] | – | – | EC50 (TABLE 4, R2 is Pyridinyl-CN): 124 nM
12 | CC(O)c1cccc(-c2ccnc(N[C@@H]3CCCC[C@H]3NC3CCCN(c4ccc(C#N)nc4)C3)c2)c1 (some centres unmarked) [Example 313] | – | – | EC50 (TABLE 4, R2 is Pyridinyl-CN): 68 nM
13 | CC(C)(O)c1cccc(-c2ccnc(N[C@@H]3CCCC[C@H]3NC3CCCN(c4ccc(C#N)nc4)C3)c2)c1 (some centres unmarked) [Example 314] | – | – | EC50 (TABLE 4, R2 is Pyridinyl-CN): 67 nM
14 | N#Cc1ccc(N2CCCC(N[C@@H]3CCCC[C@H]3Nc3ncc(-c4ccc(OC(F)(F)F)cc4)o3)C2)nc1 (some centres unmarked) [Example 315] | – | – | EC50 (TABLE 4, R2 is Pyridinyl-CN): 15 nM
15 | N#Cc1ccc(N2CCC[C@H](N[C@@H]3CCCC[C@H]3Nc3cc(-c4cccc(C(N)=O)c4)ccn3)C2)cn1 [Example 316] | – | – | EC50 (TABLE 4, R2 is Pyridinyl-CN): 165 nM
16 | CC(C)(O)c1cccc(-c2ccnc(N[C@@H]3CCCC[C@H]3N[C@H]3CCCN(c4ccc(C#N)nc4)C3)c2)c1 [Example 317] | – | – | EC50 (TABLE 4, R2 is Pyridinyl-CN): 105 nM
17 | NC(=O)c1cccc(-c2cnc(N[C@@H]3CCCC[C@H]3N[C@H]3CCCN(c4ccc(C(F)(F)F)cn4)C3)o2)c1 [Example 318] | 1 | – | –
18 | NC(=O)c1cccc(-c2ccnc(N[C@@H]3CCCC[C@H]3N[C@H]3CCCN(c4ccc(C(F)(F)F)cn4)C3)c2)c1 [Example 319] | 10 | – | –
19 | NC(=O)c1cccc(-c2cnc(N[C@@H]3CCCC[C@H]3N[C@H]3CCCN(c4ccc(C(F)(F)F)nc4)C3)o2)c1 [Example 320] | 1 | – | –
20 | NC(=O)c1cccc(-c2ccnc(N[C@@H]3CCCC[C@H]3N[C@H]3CCCN(c4ccc(C(F)(F)F)nc4)C3)c2)c1 [Example 321] | 16 | – | –

Row | Structure (SMILES) | EC50 (TABLE 5, R2 is Pyridinyl-CF3) [nM] | EC50 (human Y4 receptor, cAMP) [nM] | other results
21 | C[C@]1(N[C@@H]2CCCC[C@H]2Nc2ncc(-c3cccc(C(N)=O)c3)o2)CCCN(c2ccc(C(F)(F)F)nc2)C1 [Example 322] | 2 | – | –
22 | C[C@]1(N[C@@H]2CCCC[C@H]2Nc2cc(-c3cccc(C(N)=O)c3)ccn2)CCCN(c2ccc(C(F)(F)F)nc2)C1 [Example 323] | 17 | – | –
23 | O=C(O)c1cccc(-c2cnc(N[C@@H]3CCCC[C@H]3N[C@H]3CCCN(c4ccc(C(F)(F)F)nc4)C3)o2)c1 [Example 324] | 52 | – | –
24 | NC(=O)c1cccc(-c2cnc(N[C@@H]3CCCC[C@H]3N[C@H]3C[C@@H]4C[C@H]3N(c3ccnc(C(F)(F)F)c3)C4)o2)c1 [Example 325] | 567 | – | –
25 | NC(=O)c1cccc(-c2cnc(N[C@@H]3CCCC[C@H]3N[C@H]3C[C@@H]4C[C@H]3N(c3ccc(C(F)(F)F)cn3)C4)o2)c1 [Example 326] | 9 | – | –
26 | NC(=O)c1cccc(-c2ccnc(N[C@@H]3CCCC[C@H]3N[C@H]3C[C@@H]4C[C@H]3N(c3ccc(C(F)(F)F)nc3)C4)c2)c1 [Example 327] | 180 | – | –
27 | NC(=O)c1cccc(-c2cnc(N[C@@H]3CCCC[C@H]3N[C@H]3C[C@@H]4C[C@H]3N(c3ccc(C(F)(F)F)nc3)C4)o2)c1 [Example 328] | 31 | – | –
28 | C[C@]1(N[C@@H]2CCCC[C@H]2Nc2ncc(-c3cccc(C(N)=O)c3)o2)CCCN(c2ccc(C(F)(F)F)cn2)C1 [Example 329] | 1 | – | –
29 | COC(=O)c1cccc(-c2cnc(N[C@@H]3CCCC[C@H]3N[C@H]3CCCN(c4ccc(C(F)(F)F)cn4)C3)o2)c1 [Example 330] | 166 | – | –
30 | COC(=O)Nc1cccc(-c2cnc(N[C@@H]3CCCC[C@H]3N[C@H]3CCCN(c4ccc(C(F)(F)F)nc4)C3)o2)c1 [Example 331] | 5 | – | –
31 | C[C@]1(N[C@@H]2CCCC[C@H]2Nc2cc(-c3cccc(C(N)=O)c3)ccn2)CCCN(c2ccc(C(F)(F)F)cn2)C1 [Example 332] | 24 | – | –
32 | CC(C)(C)OC(=O)Nc1cccc(-c2cnc(N[C@@H]3CCCC[C@H]3N[C@H]3CCCN(c4ccc(C(F)(F)F)nc4)C3)o2)c1 [Example 333] | 95 | – | –
33 | O=C(Nc1cccc(-c2cnc(N[C@@H]3CCCC[C@H]3N[C@H]3CCCN(c4ccc(C(F)(F)F)nc4)C3)o2)c1)C1CC1 [Example 334] | 3 | – | –
34 | COc1ccc(-c2cnc(N[C@@H]3CCCC[C@H]3N[C@H]3CCCN(c4ccc(C(F)(F)F)nc4)C3)o2)cc1C#N [Example 335] | 1600 | – | –
35 | FC(F)(F)Oc1ccc(-c2cnc(N[C@@H]3CCCC[C@H]3N[C@H]3CCCN(c4ccnc(C(F)(F)F)c4)C3)o2)cc1 [Example 336] | 212 | – | –
36 | NC(=O)c1cccc(-c2ccnc(N[C@@H]3CCCC[C@H]3N[C@H]3C[C@@H]4C[C@H]3N(c3ccc(C(F)(F)F)cn3)C4)c2)c1 [Example 337] | 26 | – | –
37 | FC(F)(F)Oc1ccc(-c2cnc(N[C@@H]3CCCC[C@H]3N[C@H]3C[C@@H]4C[C@H]3N(c3ccc(C(F)(F)F)cn3)C4)o2)cc1 [Example 338] | 226 | – | –
38 | COC(=O)Nc1cccc(-c2ccnc(N[C@@H]3CCCC[C@H]3N[C@H]3CCCN(c4ccc(-c5noc(C)n5)cc4)C3)c2)c1 [Example 339] | – | 0.1 | –
39 | CCOC(=O)Nc1cccc(-c2cnc(N[C@@H]3CCCC[C@H]3N[C@H]3CCCN(c4ccc(-c5noc(C)n5)cc4)C3)o2)c1 [Example 340] | – | 3 | –
40 | Cc1nc(-c2ccc(N3CCC[C@H](N[C@@H]4CCCC[C@H]4Nc4cc(-c5cccc(OC(F)(F)F)c5)ccn4)C3)cc2)no1 [Example 341] | – | 123 | –

Row | Structure (SMILES) | EC50 (TABLE 5, R2 is Pyridinyl-CF3) [nM] | EC50 (human Y4 receptor, cAMP) [nM] | other results
41 | Cc1nc(-c2ccc(N3CCC[C@H](N[C@@H]4CCCC[C@H]4Nc4cc(-c5ccc(F)c(F)c5)ccn4)C3)cc2)no1 [Example 342] | – | 8 | –
42 | Cc1nc(-c2ccc(N3CCC[C@H](N[C@@H]4CCCC[C@H]4Nc4cc(-c5ccc(F)cc5F)ccn4)C3)cc2)no1 [Example 343] | – | 11 | –
43 | Cc1nnc(-c2ccc(N3CCCC(N[C@@H]4CCCC[C@H]4Nc4cc(-c5cccnc5)ccn4)C3)cc2)o1 (some centres unmarked) [Example 345] | – | 64 | –
44 | Cc1nnc(-c2ccc(N3CCC[C@H](N[C@@H]4CCCC[C@H]4Nc4ncc(-c5cccc(C(N)=O)c5)o4)C3)cc2)o1 [Example 346] | – | 306 | –
45 | Cc1nc(-c2ccc(N3CCC[C@H](N[C@@H]4CCCC[C@H]4Nc4cc(-c5cccc(C(N)=O)c5)ccn4)C3)cc2)no1 [Example 347] | – | 0.2 | –
46 | Cc1nnc(-c2ccc(N3CCC[C@H](N[C@@H]4CCCC[C@H]4Nc4ncc(-c5ccccc5OC(F)(F)F)o4)C3)cc2)o1 [Example 348] | – | 3 | –
47 | Cc1nnc(-c2ccc(N3CCC[C@H](N[C@@H]4CCCC[C@H]4Nc4cc(-c5cccc(C(N)=O)c5)ccn4)C3)cc2)o1 [Example 349] | – | 1 | –
48 | Cc1nc(-c2ccc(N3C[C@@H]4C[C@H](N[C@@H]5CCCC[C@H]5Nc5nccc(-c6ccccc6)n5)[C@H]3C4)cc2)no1 [Example 350] | – | 9 | –
49 | Cc1nc(-c2ccc(N3C[C@@H]4C[C@H](N[C@@H]5CCCC[C@H]5Nc5ncc(-c6ccc(OC(F)(F)F)cc6)o5)[C@H]3C4)cc2)no1 [Example 351] | – | 448 | –
50 | Cc1nnc(-c2ccc(N3CCC[C@H](N[C@@H]4CCCC[C@H]4Nc4cc(Br)ccn4)C3)cc2)o1 [Example 352] | – | 318 | –
51 | Cc1nc(-c2ccc(N3C[C@@H]4C[C@H](N[C@@H]5CCCC[C@H]5Nc5cc(-c6cccc(C(N)=O)c6)ccn5)[C@H]3C4)cc2)no1 [Example 353] | – | 1 | –
52 | Cc1noc(-c2ccc(N3CCC[C@H](N[C@@H]4CCCC[C@H]4Nc4nccc(-c5ccccc5)n4)C3)cc2)n1 [Example 354] | – | 15 | –
53 | Cc1noc(-c2ccc(N3CCC[C@H](N[C@@H]4CCCC[C@H]4Nc4ncc(-c5ccc(OC(F)(F)F)cc5)o4)C3)cc2)n1 [Example 355] | – | 225 | –
54 | Cc1nnc(-c2ccc(N3CCCC(N[C@@H]4CCCC[C@H]4Nc4cc(-c5cccc(OC(F)(F)F)c5)ccn4)C3)cc2)o1 (some centres unmarked) [Example 358] | – | 17 | –
55 | Cc1noc(-c2ccc(N3CCC[C@H](N[C@@H]4CCCC[C@H]4Nc4cc(-c5cccc(C(C)(C)O)c5)ccn4)C3)cc2)n1 [Example 362] | – | 23 | –
56 | Cc1noc(-c2ccc(N3CCC[C@H](N[C@@H]4CCCC[C@H]4Nc4cc(-c5cccc(OC(F)(F)F)c5)ccn4)C3)cc2)n1 [Example 363] | – | 314 | –
57 | Cc1nnc(-c2ccc(N3CCCC(N[C@@H]4CCCC[C@H]4Nc4cc(-c5ccc(F)cc5)ccn4)C3)cc2)o1 (some centres unmarked) [Example 364] | – | 3 | –
58 | Cc1nnc(-c2ccc(N3CCCC(N[C@@H]4CCCC[C@H]4Nc4cc(-c5ccc(Cl)cc5)ccn4)C3)cc2)o1 (some centres unmarked) [Example 365] | – | 52 | –
59 | COc1ccc(-c2ccnc(N[C@@H]3CCCC[C@H]3NC3CCCN(c4ccc(-c5nnc(C)o5)cc4)C3)c2)cc1 (some centres unmarked) [Example 366] | – | 323 | –
